Test results published in the supplement of paper PMC5908809.

Columns and labels:
[1] = test system: normal primary NK cells, pool 1 (3 donors), resting (IL-2 0 ng/mL); experiment: percent inhibition of viability; higher = more inhibition; conditions: 72 h
[2] = test system: normal primary NK cells, pool 3 (3 donors) (IL-2 2.5 ng/mL); experiment: as above; conditions: 72 h
[3] = test system: normal primary NK cells, pool 2 (3 donors) (IL-2 2.5 ng/mL); experiment: as above; conditions: 72 h
IMC-1 (IL-2 20 ng/mL) [4] = experiment: as above; conditions: 72 h
SNK-6 (IL-2 2.5 ng/mL) [5] = experiment: as above; conditions: 72 h
NKL (IL-2 2.5 ng/mL) [6] = experiment: as above; conditions: 72 h
KHYG-1 (IL-2 2.5 ng/mL) [7] = experiment: as above; conditions: 72 h
NK-92 (IL-2 2.5 ng/mL) [8] = experiment: as above; conditions: 72 h
[9] = test system: normal primary NK cells, pool 1 (3 donors) (IL-2 2.5 ng/mL); experiment: as above; conditions: 72 h
NK-YS (IL-2 2.5 ng/mL) [10] = experiment: as above; conditions: 72 h
YT (IL-2 2.5 ng/mL) [11] = experiment: as above; conditions: 72 h
KAI3 (IL-2 2.5 ng/mL) [12] = experiment: as above; conditions: 72 h
DERL-7 (IL-2 2.5 ng/mL) [13] = experiment: as above; conditions: 72 h
[14] = test system: normal NK cells expanded with K562-aAPC; experiment: as above; conditions: 72 h, IL-2 2.5 ng/mL
Description: (§1)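 Drug sensitivity and resistance testing on K562-aAPC-expanded normal NK cells: 5 concentrations (10-fold steps over a 10,000-fold range), 72 h at 37 °C, viability by CellTiter-Glo normalised to DMSO and benzethonium chloride controls; DSS from the fitted curve.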

[15] = test system: normal NK cells expanded with K562-aAPC; experiment: drug sensitivity score (DSS) (DSS units); higher = more sensitive; extreme values may be limits of the assay; conditions: 72 h; IL-2 2.5 ng/mL
Description: as §1

[16] = test system: normal primary NK cells, pool 1 (3 donors), resting (IL-2 0 ng/mL); experiment: as above; conditions: 72 h
[17] = test system: normal primary NK cells, pool 3 (3 donors) (IL-2 2.5 ng/mL); experiment: as above; conditions: 72 h
[18] = test system: normal primary NK cells, pool 2 (3 donors) (IL-2 2.5 ng/mL); experiment: as above; conditions: 72 h
IMC-1 (IL-2 20 ng/mL) [19] = experiment: as above; conditions: 72 h
SNK-6 (IL-2 2.5 ng/mL) [20] = experiment: as above; conditions: 72 h
NKL (IL-2 2.5 ng/mL) [21] = experiment: as above; conditions: 72 h
KHYG-1 (IL-2 2.5 ng/mL) [22] = experiment: as above; conditions: 72 h
NK-92 (IL-2 2.5 ng/mL) [23] = experiment: as above; conditions: 72 h
[24] = test system: normal primary NK cells, pool 1 (3 donors) (IL-2 2.5 ng/mL); experiment: as above; conditions: 72 h
NK-YS (IL-2 2.5 ng/mL) [25] = experiment: as above; conditions: 72 h
YT (IL-2 2.5 ng/mL) [26] = experiment: as above; conditions: 72 h
KAI3 (IL-2 2.5 ng/mL) [27] = experiment: as above; conditions: 72 h
DERL-7 (IL-2 2.5 ng/mL) [28] = experiment: as above; conditions: 72 h

COc1ccc(S(=O)(=O)Nc2cccnc2Nc2ccc(O)cc2)cc1 [ABT-751] (max concentration tested 10000 nM)
percent inhibition of viability [%]
Conditions | 1 nM | 10 nM | 100 nM | 1000 nM | 10000 nM
DERL-7 (IL-2 2.5 ng/mL) [13] | 5.8 | 5.64 | 3.05 | 99.1 | 99
IMC-1 (IL-2 20 ng/mL) [4] | 1.24 | 2.22 | 4.35 | 99.6 | 99.6
KAI3 (IL-2 2.5 ng/mL) [12] | 7.18 | 10.3 | 18.4 | 62.9 | 74.9
KHYG-1 (IL-2 2.5 ng/mL) [7] | -0.83 | 2.36 | 14.9 | 104 | 104
NK-92 (IL-2 2.5 ng/mL) [8] | 4.6 | 3.35 | 37.3 | 92.8 | 91.3
NK-YS (IL-2 2.5 ng/mL) [10] | -0.79 | 0.15 | 23.9 | 70.5 | 71.2
NKL (IL-2 2.5 ng/mL) [6] | -0.28 | -14.8 | -13.9 | 90.3 | 83.4
SNK-6 (IL-2 2.5 ng/mL) [5] | 3.22 | 10.5 | 50.7 | 81.7 | 89.2
YT (IL-2 2.5 ng/mL) [11] | 3.24 | 3.8 | 13.6 | 100 | 96.2
[1] | 1.2 | -5.61 | -12 | 16.9 | 49.5
[2] | 4.41 | 1.96 | 4.78 | 13.2 | 16.7
[3] | 0.28 | 3.85 | 0.94 | 8.44 | 14.7
[9] | -9.52 | -12.6 | -7.29 | 0.64 | 11.6
[14] | 2.34 | 4.2 | 3.33 | 57.7 | 58.5

Conditions | drug sensitivity score
DERL-7 (IL-2 2.5 ng/mL) [28] | 18.2
IMC-1 (IL-2 20 ng/mL) [19] | 18.5
KAI3 (IL-2 2.5 ng/mL) [27] | 13.8
KHYG-1 (IL-2 2.5 ng/mL) [22] | 20.6
NK-92 (IL-2 2.5 ng/mL) [23] | 21.4
NK-YS (IL-2 2.5 ng/mL) [25] | 16.3
NKL (IL-2 2.5 ng/mL) [21] | 15.4
SNK-6 (IL-2 2.5 ng/mL) [20] | 21.9
YT (IL-2 2.5 ng/mL) [26] | 20.3
[15] | 11.1
[16] | 5.02
[17] | 1.19
[18] | 0.52
[24] | 0.04

CC[C@@H]1C(=O)N(C)c2cnc(Nc3ccc(C(=O)N[C@H]4CC[C@H](N5CCN(CC6CC6)CC5)CC4)cc3OC)nc2N1C(C)C [Volasertib] (max concentration tested 1000 nM)
percent inhibition of viability [%]
Conditions | 0.1 nM | 1 nM | 10 nM | 100 nM | 1000 nM
DERL-7 (IL-2 2.5 ng/mL) [13] | 6.13 | 1.89 | 15.1 | 98.3 | 95
IMC-1 (IL-2 20 ng/mL) [4] | -3.21 | -4.2 | 2.24 | 94 | 93.2
KAI3 (IL-2 2.5 ng/mL) [12] | 2.62 | 2.62 | 15 | 38.7 | 51.1
KHYG-1 (IL-2 2.5 ng/mL) [7] | -0.67 | -1.62 | 4.85 | 98.4 | 99.2
NK-92 (IL-2 2.5 ng/mL) [8] | -14.8 | -9.97 | 33.1 | 92 | 82.6
NK-YS (IL-2 2.5 ng/mL) [10] | -1.3 | 1.64 | 5.27 | 59 | 51
NKL (IL-2 2.5 ng/mL) [6] | -8.73 | -9.25 | -5.94 | 65.4 | 40.5
SNK-6 (IL-2 2.5 ng/mL) [5] | 8.84 | 8.4 | 39 | 65.5 | 42.1
YT (IL-2 2.5 ng/mL) [11] | -2.13 | 1.45 | 2.63 | 73.9 | 70.2
[1] | 8.74 | -8.57 | -4.01 | 0.78 | 16
[2] | -12.7 | -9.54 | -12.6 | -7.36 | 8.33
[3] | -9.16 | -9.48 | -8.67 | -4.83 | 38.6
[9] | -2.22 | -7 | -3.63 | -0.83 | 28.3
[14] | 0.48 | -0.94 | -1.6 | 54.3 | 54.2

Conditions | drug sensitivity score
DERL-7 (IL-2 2.5 ng/mL) [28] | 20.2
IMC-1 (IL-2 20 ng/mL) [19] | 17.2
KAI3 (IL-2 2.5 ng/mL) [27] | 8.7
KHYG-1 (IL-2 2.5 ng/mL) [22] | 18.4
NK-92 (IL-2 2.5 ng/mL) [23] | 21.2
NK-YS (IL-2 2.5 ng/mL) [25] | 11.7
NKL (IL-2 2.5 ng/mL) [21] | 11.5
SNK-6 (IL-2 2.5 ng/mL) [20] | 16.3
YT (IL-2 2.5 ng/mL) [26] | 13.8
[15] | 9.75
[16] | 0.37
[17] | 0
[18] | 1.57
[24] | 1.12

O=C1CCC(N2C(=O)c3ccccc3C2=O)C(=O)N1 (stereo unspecified) [Thalidomide] (max concentration tested 10000 nM)
percent inhibition of viability [%]
Conditions | 1 nM | 10 nM | 100 nM | 1000 nM | 10000 nM
DERL-7 (IL-2 2.5 ng/mL) [13] | -4.35 | 1.66 | 0.7 | -4.56 | -10.4
IMC-1 (IL-2 20 ng/mL) [4] | -2.34 | -2.83 | 3.91 | 5.3 | 12
KAI3 (IL-2 2.5 ng/mL) [12] | -9.63 | -11.1 | -3.59 | -3.95 | 14.6
KHYG-1 (IL-2 2.5 ng/mL) [7] | -4.12 | -6.62 | 0.67 | 6.18 | 10.3
NK-92 (IL-2 2.5 ng/mL) [8] | -15.9 | -8.74 | -9.71 | 7.78 | 12.7
NK-YS (IL-2 2.5 ng/mL) [10] | -5.98 | -8.88 | -3.38 | 8.1 | 15.2
NKL (IL-2 2.5 ng/mL) [6] | -18.5 | -7.52 | -3.52 | 13.7 | 11.1
SNK-6 (IL-2 2.5 ng/mL) [5] | -14.3 | 8.65 | -18.4 | -31.5 | -27.8
YT (IL-2 2.5 ng/mL) [11] | -9.26 | -7.23 | -5.25 | -0.15 | 26.5
[1] | 6 | -5.13 | 20 | -1.84 | -5.2
[2] | -10.6 | -12.8 | -2.32 | 1.72 | 4.5
[3] | -7.68 | -2.29 | 0.16 | 8.57 | 7.78
[9] | 0.86 | -2.62 | 18.8 | -1.53 | 5.13
[14] | -14.8 | -5.18 | -6.96 | 6.59 | 12.7

Conditions | drug sensitivity score
DERL-7 (IL-2 2.5 ng/mL) [28] | 0
IMC-1 (IL-2 20 ng/mL) [19] | 0.03
KAI3 (IL-2 2.5 ng/mL) [27] | 0.11
KHYG-1 (IL-2 2.5 ng/mL) [22] | 0.01
NK-92 (IL-2 2.5 ng/mL) [23] | 0.43
NK-YS (IL-2 2.5 ng/mL) [25] | 0.86
NKL (IL-2 2.5 ng/mL) [21] | 0.91
SNK-6 (IL-2 2.5 ng/mL) [20] | 0
YT (IL-2 2.5 ng/mL) [26] | 1.05
[15] | 0.4
[16] | 0
[17] | 0
[18] | 0
[24] | 0

Cc1c(C(=O)Nc2ccc(N3C[C@@H](C)O[C@@H](C)C3)nc2)cccc1-c1ccc(OC(F)(F)F)cc1 [Sonidegib] (max concentration tested 10000 nM)
percent inhibition of viability [%]
Conditions | 1 nM | 10 nM | 100 nM | 1000 nM | 10000 nM
DERL-7 (IL-2 2.5 ng/mL) [13] | -6.39 | 0.97 | 3.22 | 7.44 | 7.71
IMC-1 (IL-2 20 ng/mL) [4] | -2.05 | 0.95 | 10.7 | 7.33 | 66.2
KAI3 (IL-2 2.5 ng/mL) [12] | -9.76 | 2.17 | -0.83 | -2.67 | 26.2
KHYG-1 (IL-2 2.5 ng/mL) [7] | 1.09 | -0.52 | 4.83 | 5.39 | 33.4
NK-92 (IL-2 2.5 ng/mL) [8] | 5.8 | 1.52 | 11.2 | 33.5 | 79.3
NK-YS (IL-2 2.5 ng/mL) [10] | -0.38 | 2.73 | 7.41 | 11.1 | 31.1
NKL (IL-2 2.5 ng/mL) [6] | -6.67 | 3.73 | -0.64 | 6.28 | 26.8
SNK-6 (IL-2 2.5 ng/mL) [5] | 4.68 | 24.7 | 23.1 | 15.3 | 25.6
YT (IL-2 2.5 ng/mL) [11] | 1.1 | 5.23 | 7.91 | 6.65 | 37
[1] | 7.84 | -5.48 | 2.43 | -23.8 | -13.6
[2] | -16.4 | -5.96 | 3.9 | -2.57 | -0.38
[3] | -5.58 | -3.94 | 1.51 | -3.08 | -2.7
[9] | 2.22 | -1.01 | 1.87 | -6.02 | -0.78
[14] | -1.35 | -1.33 | -0.97 | 6.62 | 11.9

Conditions | drug sensitivity score
DERL-7 (IL-2 2.5 ng/mL) [28] | 0
IMC-1 (IL-2 20 ng/mL) [19] | 4.85
KAI3 (IL-2 2.5 ng/mL) [27] | 0.87
KHYG-1 (IL-2 2.5 ng/mL) [22] | 2.43
NK-92 (IL-2 2.5 ng/mL) [23] | 8.23
NK-YS (IL-2 2.5 ng/mL) [25] | 2.3
NKL (IL-2 2.5 ng/mL) [21] | 2.01
SNK-6 (IL-2 2.5 ng/mL) [20] | 10.6
YT (IL-2 2.5 ng/mL) [26] | 2.89
[15] | 0.28
[16] | 0
[17] | 0
[18] | 0
[24] | 0
